Experimental data: the NIST ThermoML archive (doi:10.1007/s10765-009-0602-6)

Assay: molar heat capacity at constant volume; xn = mol fraction of the nth substance listed
Settings: x1 = 0.2607

N [ammonia] + O
Settings | molar heat capacity at constant volume [J/K/mol]
508.07 K, Fluid (supercritical or subcritical phases), Mass density=671.23 kg/m3, isochoric heat capacity | 68.25
508.07 K, Liquid, Isochoric heat capacity | 68.25
508.26 K, Fluid (supercritical or subcritical phases), Mass density=671.23 kg/m3, isochoric heat capacity | 68.14
508.36 K, Fluid (supercritical or subcritical phases), Mass density=671.23 kg/m3, isochoric heat capacity | 68.37
508.45 K, Fluid (supercritical or subcritical phases), Mass density=671.23 kg/m3, isochoric heat capacity | 67.54
508.54 K, Fluid (supercritical or subcritical phases), Mass density=671.23 kg/m3, isochoric heat capacity | 67.61
508.64 K, Fluid (supercritical or subcritical phases), Mass density=671.23 kg/m3, isochoric heat capacity | 67.18
509.01 K, Fluid (supercritical or subcritical phases), Mass density=671.23 kg/m3, isochoric heat capacity | 68.48
509.11 K, Fluid (supercritical or subcritical phases), Mass density=671.23 kg/m3, isochoric heat capacity | 67.7
509.3 K, Fluid (supercritical or subcritical phases), Mass density=671.23 kg/m3, isochoric heat capacity | 67.89
509.39 K, Fluid (supercritical or subcritical phases), Mass density=671.23 kg/m3, isochoric heat capacity | 66.74
509.67 K, Fluid (supercritical or subcritical phases), Mass density=671.23 kg/m3, isochoric heat capacity | 67.09
513.42 K, Fluid (supercritical or subcritical phases), Mass density=671.23 kg/m3, isochoric heat capacity | 65.53
513.61 K, Fluid (supercritical or subcritical phases), Mass density=671.23 kg/m3, isochoric heat capacity | 65.05
513.8 K, Fluid (supercritical or subcritical phases), Mass density=671.23 kg/m3, isochoric heat capacity | 65.6
516.88 K, Fluid (supercritical or subcritical phases), Mass density=671.23 kg/m3, isochoric heat capacity | 63.54
517.07 K, Fluid (supercritical or subcritical phases), Mass density=671.23 kg/m3, isochoric heat capacity | 63.15
517.26 K, Fluid (supercritical or subcritical phases), Mass density=671.23 kg/m3, isochoric heat capacity | 63.06
517.44 K, Fluid (supercritical or subcritical phases), Mass density=671.23 kg/m3, isochoric heat capacity | 63.27
517.63 K, Fluid (supercritical or subcritical phases), Mass density=671.23 kg/m3, isochoric heat capacity | 62.44
517.82 K, Fluid (supercritical or subcritical phases), Mass density=671.23 kg/m3, isochoric heat capacity | 63.49
519.77 K, Fluid (supercritical or subcritical phases), Mass density=649.65 kg/m3, isochoric heat capacity | 68.81
519.77 K, Liquid, Isochoric heat capacity | 68.81
519.87 K, Fluid (supercritical or subcritical phases), Mass density=649.65 kg/m3, isochoric heat capacity | 68.23
520.05 K, Fluid (supercritical or subcritical phases), Mass density=649.65 kg/m3, isochoric heat capacity | 65.99
520.14 K, Fluid (supercritical or subcritical phases), Mass density=649.65 kg/m3, isochoric heat capacity | 66.91
520.24 K, Fluid (supercritical or subcritical phases), Mass density=649.65 kg/m3, isochoric heat capacity | 67.27
520.33 K, Fluid (supercritical or subcritical phases), Mass density=649.65 kg/m3, isochoric heat capacity | 64.87
520.42 K, Fluid (supercritical or subcritical phases), Mass density=649.65 kg/m3, isochoric heat capacity | 66.63
520.52 K, Fluid (supercritical or subcritical phases), Mass density=649.65 kg/m3, isochoric heat capacity | 67.09
520.79 K, Fluid (supercritical or subcritical phases), Mass density=649.65 kg/m3, isochoric heat capacity | 65.87
520.98 K, Fluid (supercritical or subcritical phases), Mass density=649.65 kg/m3, isochoric heat capacity | 65.39
521.17 K, Fluid (supercritical or subcritical phases), Mass density=649.65 kg/m3, isochoric heat capacity | 66.9
521.35 K, Fluid (supercritical or subcritical phases), Mass density=649.65 kg/m3, isochoric heat capacity | 66.72
521.45 K, Fluid (supercritical or subcritical phases), Mass density=649.65 kg/m3, isochoric heat capacity | 66.06
521.54 K, Fluid (supercritical or subcritical phases), Mass density=649.65 kg/m3, isochoric heat capacity | 65.81
526.45 K, Fluid (supercritical or subcritical phases), Mass density=649.65 kg/m3, isochoric heat capacity | 63.84
526.64 K, Fluid (supercritical or subcritical phases), Mass density=649.65 kg/m3, isochoric heat capacity | 63.74
526.82 K, Fluid (supercritical or subcritical phases), Mass density=649.65 kg/m3, isochoric heat capacity | 63.43
527.01 K, Fluid (supercritical or subcritical phases), Mass density=649.65 kg/m3, isochoric heat capacity | 63.65
527.19 K, Fluid (supercritical or subcritical phases), Mass density=649.65 kg/m3, isochoric heat capacity | 62.83
527.28 K, Fluid (supercritical or subcritical phases), Mass density=649.65 kg/m3, isochoric heat capacity | 63.36
545.62 K, Fluid (supercritical or subcritical phases), Mass density=594.32 kg/m3, isochoric heat capacity | 71.3
545.62 K, Liquid, Isochoric heat capacity | 71.3
545.71 K, Fluid (supercritical or subcritical phases), Mass density=594.32 kg/m3, isochoric heat capacity | 69.65
545.8 K, Fluid (supercritical or subcritical phases), Mass density=594.32 kg/m3, isochoric heat capacity | 69.15
546.08 K, Fluid (supercritical or subcritical phases), Mass density=594.32 kg/m3, isochoric heat capacity | 68.46
546.17 K, Fluid (supercritical or subcritical phases), Mass density=594.32 kg/m3, isochoric heat capacity | 67.48
546.35 K, Fluid (supercritical or subcritical phases), Mass density=594.32 kg/m3, isochoric heat capacity | 68.48
546.62 K, Fluid (supercritical or subcritical phases), Mass density=594.32 kg/m3, isochoric heat capacity | 67.15
546.71 K, Fluid (supercritical or subcritical phases), Mass density=594.32 kg/m3, isochoric heat capacity | 66.47
547.07 K, Fluid (supercritical or subcritical phases), Mass density=594.32 kg/m3, isochoric heat capacity | 65.62
547.17 K, Fluid (supercritical or subcritical phases), Mass density=594.32 kg/m3, isochoric heat capacity | 66.33
547.5 K, Fluid (supercritical or subcritical phases), Mass density=594.32 kg/m3, isochoric heat capacity | 65.53
547.79 K, Fluid (supercritical or subcritical phases), Mass density=594.32 kg/m3, isochoric heat capacity | 65.46
547.98 K, Fluid (supercritical or subcritical phases), Mass density=594.32 kg/m3, isochoric heat capacity | 63.91
549.8 K, Fluid (supercritical or subcritical phases), Mass density=594.32 kg/m3, isochoric heat capacity | 63.77
549.98 K, Fluid (supercritical or subcritical phases), Mass density=594.32 kg/m3, isochoric heat capacity | 62.97
550.07 K, Fluid (supercritical or subcritical phases), Mass density=594.32 kg/m3, isochoric heat capacity | 63.74
550.16 K, Fluid (supercritical or subcritical phases), Mass density=594.32 kg/m3, isochoric heat capacity | 63.45
550.34 K, Fluid (supercritical or subcritical phases), Mass density=594.32 kg/m3, isochoric heat capacity | 63.56
561.03 K, Fluid (supercritical or subcritical phases), Mass density=552.58 kg/m3, isochoric heat capacity | 73.2
561.03 K, Liquid, Isochoric heat capacity | 73.2
561.19 K, Fluid (supercritical or subcritical phases), Mass density=552.58 kg/m3, isochoric heat capacity | 70.73
561.25 K, Fluid (supercritical or subcritical phases), Mass density=552.58 kg/m3, isochoric heat capacity | 66.7
561.34 K, Fluid (supercritical or subcritical phases), Mass density=552.58 kg/m3, isochoric heat capacity | 64.8
561.52 K, Fluid (supercritical or subcritical phases), Mass density=552.58 kg/m3, isochoric heat capacity | 64.06
561.61 K, Fluid (supercritical or subcritical phases), Mass density=552.58 kg/m3, isochoric heat capacity | 62.44
561.7 K, Fluid (supercritical or subcritical phases), Mass density=552.58 kg/m3, isochoric heat capacity | 64.39
561.88 K, Fluid (supercritical or subcritical phases), Mass density=552.58 kg/m3, isochoric heat capacity | 63.24
561.97 K, Fluid (supercritical or subcritical phases), Mass density=552.58 kg/m3, isochoric heat capacity | 62.79
562.06 K, Fluid (supercritical or subcritical phases), Mass density=552.58 kg/m3, isochoric heat capacity | 61.43
565.36 K, Liquid, Isochoric heat capacity | 73.52
580.18 K, Fluid (supercritical or subcritical phases), Mass density=476.25 kg/m3, isochoric heat capacity | 77.25
580.18 K, Liquid, Isochoric heat capacity | 77.25
580.21 K, Fluid (supercritical or subcritical phases), Mass density=476.25 kg/m3, isochoric heat capacity | 73.61
580.3 K, Fluid (supercritical or subcritical phases), Mass density=476.25 kg/m3, isochoric heat capacity | 69.74
580.56 K, Fluid (supercritical or subcritical phases), Mass density=476.25 kg/m3, isochoric heat capacity | 68.42
580.74 K, Fluid (supercritical or subcritical phases), Mass density=476.25 kg/m3, isochoric heat capacity | 68.46
580.92 K, Fluid (supercritical or subcritical phases), Mass density=476.25 kg/m3, isochoric heat capacity | 67.84
581.01 K, Fluid (supercritical or subcritical phases), Mass density=476.25 kg/m3, isochoric heat capacity | 68.48
